Experimental data from publication PMC9911797, “Novel TLR7/8 agonists promote activation of HIV-1 latent reservoirs and human T and NK cells” (Frontiers in Microbiology, 2023).

Legend:
hTLR7 = target: T1, hTLR7 (Homo sapiens, UniProt Q9NYK1); assay: HEK-Blue hTLR7 SEAP reporter assay; format: cell-based; conditions: HEK-Blue hTLR7 cells, SEAP in supernatant
T1 construct: host or cells: HEK-Blue hTLR7 (HEK293-derived)
T1 sequence (Q9NYK1 27-1049): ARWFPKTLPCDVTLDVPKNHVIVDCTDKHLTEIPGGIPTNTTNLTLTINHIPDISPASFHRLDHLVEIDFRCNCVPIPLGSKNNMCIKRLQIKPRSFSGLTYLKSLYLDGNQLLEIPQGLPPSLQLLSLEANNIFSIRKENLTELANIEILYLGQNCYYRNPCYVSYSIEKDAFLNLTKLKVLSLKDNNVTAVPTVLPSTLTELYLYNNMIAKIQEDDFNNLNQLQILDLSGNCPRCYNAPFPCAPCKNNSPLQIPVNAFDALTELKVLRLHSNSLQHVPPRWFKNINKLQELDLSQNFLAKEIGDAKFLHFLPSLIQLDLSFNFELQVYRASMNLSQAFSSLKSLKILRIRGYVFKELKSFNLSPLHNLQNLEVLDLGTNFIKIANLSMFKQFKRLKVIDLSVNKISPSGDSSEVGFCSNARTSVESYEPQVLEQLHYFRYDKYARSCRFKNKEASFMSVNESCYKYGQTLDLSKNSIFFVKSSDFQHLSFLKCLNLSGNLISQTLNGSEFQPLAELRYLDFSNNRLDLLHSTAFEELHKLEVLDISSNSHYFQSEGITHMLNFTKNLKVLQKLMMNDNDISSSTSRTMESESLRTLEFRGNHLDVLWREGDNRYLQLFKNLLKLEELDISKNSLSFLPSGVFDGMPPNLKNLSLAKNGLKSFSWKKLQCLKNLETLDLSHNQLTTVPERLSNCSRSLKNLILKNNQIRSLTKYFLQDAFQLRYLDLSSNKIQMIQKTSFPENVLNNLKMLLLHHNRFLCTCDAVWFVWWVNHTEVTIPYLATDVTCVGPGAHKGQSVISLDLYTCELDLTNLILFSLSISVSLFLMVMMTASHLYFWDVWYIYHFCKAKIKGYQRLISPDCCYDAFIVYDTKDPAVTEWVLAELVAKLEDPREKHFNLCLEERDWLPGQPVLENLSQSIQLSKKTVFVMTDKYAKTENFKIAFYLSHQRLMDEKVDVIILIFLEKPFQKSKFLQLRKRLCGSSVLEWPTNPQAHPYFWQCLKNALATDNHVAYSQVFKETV
Description: Starting with the lead compound, 76 pyrido [3,2-d] pyrimidine derivatives were synthesized and optimized through structural modification from the deep hydrophobic region to the solvent-exposed region. Seventy-six compounds were evaluated for their in vitro activity using HEK-Blue hTLR7 or hTLR8 reporter cells, stably expressing the human TLR7 or TLR8 and an NF-κB/AP1-inducible SEAP (secreted embryonic alkaline phosphatase reporter gene).
Add 20 μl various concentrations of TLR agonists (10 dilutions) and in a 96-well plate. Then HEK-Blue hTLR7 and hTLR8 cells were suspended to 4 × 10^5 cells/ml in HEK-Blue Detection (InvivoGen) medium and added 180 μl per well. The plates were incubated at 37°C in 5% CO2 for 12 ~ 16 h. Stimulation with a hTLR7or hTLR8 ligand activates NF-κB to induce the production of secreted embryonic alkaline phosphatase (SEAP) in the culture supernatant. SEAP could be measured at OD630nm on an ELISA plate reader.

PBMCs = assay: Inflammatory cytokine release from PBMCs (Legend-plex); format: cell-based, human; conditions: PBMC culture supernatant 48 h after stimulation
Description: Then, a total of 13 human inflammatory cytokines and chemokines (IL-1β, IFN-α2, IFN-γ, TNF-α, CCL2, IL-6, CXCL8, IL-10, IL-12p70, IL-17A, IL-18, IL-23, and IL-33) were measured in the culture supernatant 48 h after stimulation and compared with two healthy donors. Only 8 out of 13 became detectable and largely fell into the proinflammatory cytokines (IL-1β, IL-6, IL-18, IL-23, and TNF-α), Th1-and Th2-type cytokines (IL-10 and IFN-γ), and type I (IFN-α2) and type II (IFN-γ) interferons (Figures 2B–I).
The supernatants from PBMCs culture were collected and stored at-20°C until analysis. For the Multi-cytokines assay, the Legend-plex Human Inflammation Panel 1 kit (Biolegend) was used according to the manual. Thirteen human inflammatory cytokines/chemokines were measured, including IL-1β, IFN-α2, IFN-γ, TNF-α, MCP-1 (CCL2), IL-6, IL-8 (CXCL8), IL-10, IL-12p70, IL-17A, IL-18, IL-23, and IL-33.

NF-κB p65 in U1 cells = assay: Nuclear phospho-p65-S536 in U1 cells (western blot); conditions: 1 μM, 30 min, 37°C
Description: For measuring NF-kB p65 and phosphor-p65 S536, 5 × 10^6 U1 cells were stimulated by 1 μM TLR7/8 agonists D018 (7/8), B-130a (8), GS9620 (7), and DMSO (negative control) for 30 min. Nuclear proteins were extracted by NE-PER Nuclear and Cytoplasmic Extraction Reagents (Pierce) and measured the concentration using BCA protein measure kit (Thermo).
Equal amounts of extracts were loaded on the 10% polyacrylamide gel SDS-PAGE. Then proteins were electro-transferred to nitrocellulose membranes 300 mA for 90 min and incubated with blocking buffer (5% nonfat dry milk and 0.1% Tween 20 in TBS) for 1 h at room temperature. NF-kB p65, phosphorylate p65-s529, and PCNA (as the control of nuclear protein) were separately detected by NF-κB p65 Mouse mAb (CST), Phospho-NF-κB p65 Ser536 Rabbit mAb (CST) and PCNA Rabbit mAb (CST) in blocking buffer overnight at 4°C. After washing 5 times in TBST (1 × TBS + 0.1% Tween), the membranes were incubated with anti-mouse IgG (H + L) HRP (Promega) and anti-rabbit IgG (H + L) HRP (Promega) for 1 h at room temperature. After washing 5 times in TBST, membranes were incubated with ECL detection reagents (Bio-red) and then developed in Bio-red imager.

[1] = test system: J-LAT cells co-cultured with MDDCs; assay: J-LAT and MDDC co-culture assay (GFP+ cells and TNF-α); conditions: 1 μM, 48 h
[2] = test system: U1 monocytic cell line (latent HIV-1); assay: HIV-1 p24 production in latently infected U1 cells (ELISA)

SMILES: CCCCNc1nc(N)nc2ccc(Cc3ccc(CN(C)C)cc3)nc12 [D018]
- EC50 (hTLR7): 40.2 nM
- release of inflammatory cytokines (PBMCs): either equivalent (IL-6, IL-10, IL-23, and IFN-γ) or higher (IL-1β, IL-18, and TNF-α) than the commercially available R848
- nuclear phos-p65-S536 (NF-κB p65 in U1 cells): significant increase
- GFP+ J-LAT cells and soluble TNF-α in MDDC co-culture [1]: marked increase
- p24 production after TLR8 or MyD88 knockdown ([2]; 1 μM, TLR8- or MyD88-shRNA U1 vs sham-knockdown): essentially abolished the p24 production
- EC50 ([2]; Homo sapiens, read-out: EC50 of p24 production in U1): 70 nM
